From patent publication US8859584B2, “TRPV1 antagonists” (AbbVie Inc., priority 2011, dated 2014)

Legend:
[1] = target: T1, human TRPV1 (Homo sapiens, UniProt Q8NER1); test: Capsaicin Activation Assay (FLIPR intracellular Ca2+, recombinant HEK293 cells); type: cell-based; conditions: recombinant HEK293 cells expressing hTRPV1; 50 nM capsaicin; read-out: human TRPV1 capsaicin IC50
T1 construct: expressed in transfected cells
Protocol: (i) Capsaicin Activation Assay
Dulbecco's modified Eagle medium (DMEM) (with 4.5 mg/mL glucose) and fetal bovine serum were obtained from Hyclone Laboratories, Inc. (Logan, Utah). Dulbecco's phosphate-buffered saline (DPBS) (with 1 mg/mL glucose and 3.6 mg/l Na pyruvate, without phenol red), L-glutamine, hygromycin B, and Lipofectamine® were obtained from Life Technologies (Grand Island, N.Y.). G418 sulfate was obtained from Calbiochem-Novabiochem Corp. (San Diego, Calif.). Capsaicin (8-methyl-N-vanillyl-6-nonenamide) was obtained from Sigma-Aldrich, Co. (St. Louis, Mo.). Fluo-4 AM (N-[4-[6-[(acetyloxy)-methoxy]-2,7-difluoro-3-oxo-3H-xanthen-9-yl]-2-[2-[2-[bis[2-[(acetyloxy)methoxy]-2-oxyethyl]amino]-5-methylphenoxy]ethoxy]phenyl]-N-[2-[(acetyloxy)methoxy]-2-oxyethyl]-glycine, (acetyloxy)methyl ester) was purchased from Molecular Probes (Eugene, Oreg.).
(§1) Expression plasmids encoding the hTRPV1 cDNA were transfected into HEK293 cells using Lipofectamine®. Forty-eight hours after transfection, the neomycin-resistant cells were selected with growth medium containing 800 μg/mL Geneticin (Life Technologies, formerly Gibco BRL). Surviving individual colonies were isolated and screened for TRPV1 activity. Cells expressing recombinant TRPV1 were maintained at 37° C. in DMEM containing 4 mM L-glutamine, 300 μg/mL G418 (Calbiochem) and 10% fetal bovine serum under a humidified 5% CO2 atmosphere.
The functional activity of compounds at the TRPV1 receptor was determined by measurement of intracellular Ca^2+ levels ([Ca^2+]i) using the Fluorescence Imaging Plate Reader (FLIPR)TETRA®. All compounds were tested over a 12-point one-third-log concentration range. Compound stocks, 10 mM, were prepared in DMSO, and diluted serially across a 384-well plate using a Bravo BenchCel workstation (Agilent Technologies, Santa Clara, Calif.). A stock concentration of capsaicin (10 mM) was made in DMSO, and diluted in DPBS to a final concentration of 200 nM (4×). On the day prior to the experiment, the recombinant HEK293 cells expressing human TRPV1 (hTRPV1) were removed from tissue culture flasks and plated in growth medium into black-walled clear-bottom 384-well Biocoat™ poly-D-lysine assay plates (BD Biosciences, Bedford, Mass.) using a Multidrop® dispenser (ThermoScientific, Waltham, Mass.). […] The plated cells were incubated for 90-120 minutes in the dark at room temperature and then test compound was added to each well. Three minutes later, 200 nM capsaicin (4×) solution was added to each well in an amount sufficient to provide a final assay volume of 80 μL and capsaicin concentration of 50 nM. Fluorescence readings were made at 1 to 5 second intervals over the course of the experimental run. The peak increase in relative fluorescence units (minus baseline) was calculated, and expressed as a percentage of the 50 nM capsaicin (control) response.

[2] = target: T1, human TRPV1; test: Acid Activation Assay (pH 5.0, FLIPR intracellular Ca2+, recombinant HEK293 cells); type: cell-based; conditions: percentage of maximal pH 5.0-induced response remaining; HEK293 hTRPV1; max concentration 37.5 μM
Protocol: (ii) Acid Activation Assay
Dulbecco's modified Eagle's medium (DMEM) with 4.5 mg/mL D-glucose, fetal bovine serum, L-glutamine, and 2-morpholinoethanesulfonic acid (MES) were purchased from Sigma-Aldrich Co. (St. Louis, Mo.). […] The FLIPR® Calcium 4 assay kit was purchased from Molecular Devices (Sunnyvale, Calif.).
as §1
The functional activity of compounds at the TRPV1 receptor was determined by measurement of intracellular Ca^2+ levels ([Ca^2+]i) using the Fluorescence Imaging Plate Reader (FLIPR)TETRA®. […] Compound stocks, 10 mM, were prepared in DMSO, and diluted serially across a 384-well plate using a Bravo BenchCel workstation (Agilent Technologies, Santa Clara, Calif.). On the day prior to the experiment, the recombinant HEK293 cells expressing human TRPV1 (hTRPV1) were removed from tissue culture flasks and plated in growth medium into black-walled clear-bottom 384-well Biocoat™ poly-D-lysine assay plates (BD Biosciences, Bedford, Mass.) using a Multidrop® dispenser (ThermoScientific, Waltham, Mass.). […] The plated cells were incubated for 90-120 min in the dark at 25° C. The test compounds dissolved in DMSO were then added to the plates using an Agilent Bravo workstation (Agilent Technologies Inc., Santa Clara, Calif.). Three minutes later, a pH 5.0 solution was added to each well. Reagents were delivered at a rate of 40 μL/sec, and the final assay volume was 80 μL. Acidic pH solutions were prepared by titration of DPBS/MES with 1 N HCl. The intensity of the fluorescence was captured and digitally transferred to an interfaced PC. The maximum peak measured for the concentration range tested was used to calculate the corresponding peak increase in fluorescence over baseline (relative fluorescence units) which was expressed as the percentage (max % remain) of the maximal pH 5.0-induced response.

T1 sequence (Q8NER1 whole entry): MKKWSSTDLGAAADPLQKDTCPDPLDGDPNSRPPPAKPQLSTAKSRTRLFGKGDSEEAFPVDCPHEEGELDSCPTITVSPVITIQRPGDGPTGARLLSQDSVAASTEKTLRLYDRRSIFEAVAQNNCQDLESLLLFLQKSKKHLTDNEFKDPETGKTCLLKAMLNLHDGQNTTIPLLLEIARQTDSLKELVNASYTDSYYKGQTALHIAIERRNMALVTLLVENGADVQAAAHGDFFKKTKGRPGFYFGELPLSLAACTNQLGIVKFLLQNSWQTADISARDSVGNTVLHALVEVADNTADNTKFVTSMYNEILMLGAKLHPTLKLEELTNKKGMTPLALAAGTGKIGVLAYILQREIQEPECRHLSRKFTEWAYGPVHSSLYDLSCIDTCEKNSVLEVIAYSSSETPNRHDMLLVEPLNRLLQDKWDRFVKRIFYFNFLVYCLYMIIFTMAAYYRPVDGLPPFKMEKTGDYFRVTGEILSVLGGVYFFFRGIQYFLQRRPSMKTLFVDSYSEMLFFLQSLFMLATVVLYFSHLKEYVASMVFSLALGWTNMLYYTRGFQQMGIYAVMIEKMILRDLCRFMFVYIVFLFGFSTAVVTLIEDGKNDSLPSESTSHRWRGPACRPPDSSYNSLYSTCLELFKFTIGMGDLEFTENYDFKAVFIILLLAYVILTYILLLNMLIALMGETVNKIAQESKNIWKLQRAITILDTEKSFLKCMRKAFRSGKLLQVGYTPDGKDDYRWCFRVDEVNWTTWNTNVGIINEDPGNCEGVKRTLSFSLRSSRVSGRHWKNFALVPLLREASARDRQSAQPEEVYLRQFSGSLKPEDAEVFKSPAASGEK

IC50 [1] [nM]	human TRPV1 H+ (max % remain) [2] [%]	Compound
42	3	CC1(C)C[C@@H](NC(=O)Nc2ccc(F)c3c2C[C@H](O)C3)c2cccc(C(F)(F)F)c2O1 [Example 135, 1-[(4R)-2,2-dimethyl-8-(trifluoromethyl)-3,4-dihydro-2H-chromen-4-yl]-3-[(2S)-7-fluoro-2-hydroxy-2,3-dihydro-1H-inden-4-yl]urea]
200	51	CC1(C)C[C@@H](NC(=O)Nc2ccc(F)c3c2C[C@@H](O)C3)c2ccc(Cl)cc2O1 [Example 167, 1-[(4R)-7-chloro-2,2-dimethyl-3,4-dihydro-2H-chromen-4-yl]-3-[(2R)-7-fluoro-2-hydroxy-2,3-dihydro-1H-inden-4-yl]urea]
15	72	CC1(C)C[C@@H](NC(=O)Nc2cccc3c2C[C@H](O)C3)c2cccc(C(F)(F)F)c2O1 [Example 29, 1-[(4R)-2,2-dimethyl-8-(trifluoromethyl)-3,4-dihydro-2H-chromen-4-yl]-3-[(2R)-2-hydroxy-2,3-dihydro-1H-inden-4-yl]urea]
74	33	CC1(C)C[C@@H](NC(=O)Nc2cccc3c2C[C@@H](O)C3)c2ccc(F)cc2O1 [Example 32, 1-[(4R)-7-fluoro-2,2-dimethyl-3,4-dihydro-2H-chromen-4-yl]-3-[(2S)-2-hydroxy-2,3-dihydro-1H-inden-4-yl]urea]
2600	49	CC1(C)C[C@@H](NC(=O)Nc2ccc(F)c3c2C[C@@H](O)C3)c2cc(F)ccc2O1 [Example 165, 1-[(4R)-6-fluoro-2,2-dimethyl-3,4-dihydro-2H-chromen-4-yl]-3-[(2R)-7-fluoro-2-hydroxy-2,3-dihydro-1H-inden-4-yl]urea]
520	52	CC1(C)C[C@@H](NC(=O)Nc2cccc3c2C[C@@H](O)C3)c2cccc(F)c2O1 [Example 71, 1-[(4R)-8-fluoro-2,2-dimethyl-3,4-dihydro-2H-chromen-4-yl]-3-[(2S)-2-hydroxy-2,3-dihydro-1H-inden-4-yl]urea]
60	63	C[C@]1(CF)C[C@@H](NC(=O)Nc2cccc3c2C[C@H](O)C3)c2ccc(Cl)cc2O1 [Example 15, 1-[(2R,4R)-7-chloro-2-(fluoromethyl)-2-methyl-3,4-dihydro-2H-chromen-4-yl]-3-[(2R)-2-hydroxy-2,3-dihydro-1H-inden-4-yl]urea]
46	96	CCCC1(CCC)C[C@@H](NC(=O)Nc2cccc3c2C[C@H](O)C3)c2cc(F)ccc2O1 [Example 56, 1-[(4R)-6-fluoro-2,2-dipropyl-3,4-dihydro-2H-chromen-4-yl]-3-[(2R)-2-hydroxy-2,3-dihydro-1H-inden-4-yl]urea]
42	52	C[C@@]1(CF)C[C@@H](NC(=O)Nc2cccc3c2C[C@H](O)C3)c2ccc(C(F)(F)F)cc2O1 [Example 44, 1-[(2S,4R)-2-(fluoromethyl)-2-methyl-7-(trifluoromethyl)-3,4-dihydro-2H-chromen-4-yl]-3-[(2R)-2-hydroxy-2,3-dihydro-1H-inden-4-yl]urea]
25	46	O=C(Nc1cccc2c1C[C@H](O)C2)N[C@@H]1CCc2cc(Cl)ccc21 [Example 39, 1-[(1R)-5-chloro-2,3-dihydro-1H-inden-1-yl]-3-[(2R)-2-hydroxy-2,3-dihydro-1H-inden-4-yl]urea]

Compound	IC50 [1] [nM]	human TRPV1 H+ (max % remain) [2] [%]
1-[(2R)-7-fluoro-2-hydroxy-2,3-dihydro-1H-inden-4-yl]-3-[(4R)-8-(trifluoromethyl)-3,4-dihydro-2H-chromen-4-yl]urea [Example 173]	210	39
CC(C)(C)c1ccc2c(c1)CC[C@H]2NC(=O)Nc1cccc2[nH]ncc12 [C, reference compound]		1
Cc1nc(Nc2cccc3c2C[C@H](O)CC3)oc1-c1ccc(C(F)(F)F)cc1 [Example D, reference compound]		3
